Where two headings read alike, the source gives them in different places.

Type in all cases: in vivo
Data set [1] has as its system Alopecurus myosuroides (ALOMY). Nature of the data set: Pre-emergence herbicidal action against ALOMY. Particulars: 320 g/ha; scored visually after about 3 weeks; 100% = plants have died. Summed up: (§1)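 Dosages of 320 g/ha or less; pre-emergence; WP or EC in aqueous spray, 0.5% additive, 600 l/ha; greenhouse; visual % effect after ~3 wk relative to control pots.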
Data set [2] has as its system Amaranthus retroflexus (AMARE). The data set is described as follows: Pre-emergence herbicidal action against AMARE. To be noted: 320 g/ha, visual scoring after about 3 weeks vs untreated controls. A digest of the protocol:
as §1

In data set [3] the test system is Lolium rigidum (LOLRI). Nature of the data set: Pre-emergence herbicidal action against LOLRI. Particulars: dosage 320 g/ha. Summed up:
as §1

Data set [4] relates to Setaria viridis (SETVI). The data set is described as follows: Pre-emergence herbicidal action against SETVI. Particulars: dosage 320 g/ha. Summed up:
as §1

For data set [5], the system named is Brassica napus (BRSNW). To be noted: crop plant compatibility, in comparison to untreated controls. A digest of the protocol:
(§2)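 Crop injury rated visually in percent against untreated plants roughly 3 weeks after treatment (0% no effect, 100% plants dead). Compounds, as WP or EC with 0.5% additive in 600 l/ha water, were applied to the covering soil right after sowing; greenhouse growth. Suffixes a, b, c denote different dosages.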

Data set [6] deals with Glycine max (GLXMA). To be noted: pre-emergence, 80 g/ha, crop plant compatibility, in comparison to untreated controls. A digest of the protocol:
as §2

Data set [7] has as its system Oryza sativa (ORYSA). To be noted: pre-emergence, crop plant compatibility, in comparison to untreated controls. A digest of the protocol: as §2
In data set [8] the test system is Triticum aestivum (TRZAS). Particulars: pre-emergence, 80 g/ha, crop plant compatibility, in comparison to untreated controls. Summed up: as §2
Data set [9] has as its system Zea mays (ZEAMX). Particulars: pre-emergence, crop plant compatibility, in comparison to untreated controls. A digest of the protocol: as §2
The test system of data set [10] is Abutilon theophrasti (ABUTH). The data set is described as follows: Post-emergence herbicidal action against ABUTH. Particulars: 320 g/ha, visual rating about 3 weeks after treatment vs untreated controls (100% = plants have died, 0% = like control plants). Summed up: (§3)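 Doses of 320 g/ha or lower, suffixes a, b and c marking different dosages, were applied post-emergence at the one-leaf stage in 600 l/ha water with 0.5% additive. Damage was assessed visually after about 3 weeks in the greenhouse.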

Data set [11] deals with Alopecurus myosuroides (ALOMY). The data set is described as follows: Post-emergence herbicidal action against ALOMY. To be noted: visual rating about 3 weeks after treatment vs untreated controls (100% = plants have died, 0% = like control plants). A digest of the protocol:
as §3

The test system of data set [12] is Amaranthus retroflexus (AMARE). The data set is described as follows: Post-emergence herbicidal action against AMARE. Summed up:
as §3

The subject of data set [13] is Avena fatua (AVEFA). The data set is described as follows: Post-emergence herbicidal action against AVEFA. Particulars: 320 g/ha, visual rating about 3 weeks after treatment. Summed up: as §3
Data set [14] concerns Pharbitis purpurea (PHBPU). Nature of the data set: Post-emergence herbicidal action against PHBPU. To be noted: dosage 320 g/ha. Summed up: as §3
Data set [15] concerns Setaria viridis (SETVI). The data set is described as follows: Post-emergence herbicidal action against SETVI. Summed up:
as §3

For data set [16], the system named is Verconica persica (VERPE). The data set is described as follows: Post-emergence herbicidal action against VERPE. To be noted: 320 g/ha, VERPE. A digest of the protocol: as §3
Data set [17] deals with Viola tricolor (VIOTR). Nature of the data set: Post-emergence herbicidal action against VIOTR. To be noted: 320 g/ha. Summed up: as §3
Data set [18] concerns Oryza sativa (ORYSA). To be noted: crop plant compatibility. Summed up:
(§4)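 Test crops were treated 2 to 3 weeks after sowing, once they reached one leaf, by spraying compound in water with 0.5% additive at 600 l/ha. Visual scoring compared them with untreated controls roughly 3 weeks on, and appendices a, b and c denote different doses.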

In data set [19] the test system is Triticum aestivum (TRZAS). Particulars: crop plant compatibility, effect vs untreated controls. Summed up:
as §4

Data set [20] relates to Zea mays (ZEAMX). Particulars: for Post-emergence action against ZEAMX in %: crop plant compatibility, 80 g/ha, effect vs untreated controls. Summed up:
as §4

The subject of data set [21] is Viola tricolor (VIOTR). The data set is described as follows: Pre-emergence herbicidal action against VIOTR. Particulars: 320 g/ha, Viola tricolor. Summed up:
as §1

Setting [22] is: 80 g/ha, visual rating about 3 weeks after treatment vs untreated controls (100% = plants have died, 0% = like control plants).
Where [23] appears, read: 80 g/ha, effect in comparison to untreated controls.
The mark [24] stands for this setting: 20 g/ha, effect vs untreated controls.

Take `O=C(O)COc1nn(-c2ccnc(Cl)c2)c(-c2ccc(F)nc2)c1Br` [III-23]: the “Pre-emergence action against ALOMY” value in [1] was determined as 90%. Besides, the “Pre-emergence action against AMARE in %” value in data set [2] is listed as 90%. Also, the “Pre-emergence action against LOLRI in %” value in data set [3] is recorded as 100%. Besides, the “Pre-emergence action against SETVI in %” value in [4] came out at 100%. Moreover, the “Pre-emergence action against BRSNW in %” value in data set [5] (80 g/ha) and in data set [5] (320 g/ha) was 0% in each case. Moreover, in data set [6], the “Pre-emergence action against GLXMA in %” value turned out to be 0%. Besides, the “Pre-emergence action against ORYSA in %” value in data set [7] (80 g/ha) worked out at 0%. Also, the “Pre-emergence action against TRZAS in %” value in [8] is recorded as 0%. The “Pre-emergence action against ZEAMX in %” value in data set [9] (80 g/ha) and in data set [9] (320 g/ha) was 0% throughout. The “Post-emergence action against ABUTH in %” value in data set [10] was determined as 80%. In addition, the “Post-emergence action against ALOMY in %” value in [11] (320 g/ha) is 100%. Besides, the “Post-emergence action against AMARE in %” value stood at 90% in data set [12] (setting [22]) and 90% in data set [12] (320 g/ha, visual rating about 3 weeks after treatment). For the same compound, in data set [13], the “Post-emergence action against AVEFA in %” value is recorded as 80%. Also, the “Post-emergence action against PHBPU in %” value in [14] was 80%. The “Post-emergence action against SETVI in %” value came to 80% in [15] (dosage 80 g/ha) and 100% in [15] (dosage 320 g/ha). The “Post-emergence action against VERPE in %” value in [16] is given as 90%. Moreover, the “Post-emergence action against VIOTR in %” value in [17] is on record as 90%. For the same compound, the “Post-emergence action against ORYSA in %” value in data set [18] (setting [23]) turned out to be 0%; in [18] (320 g/ha, effect in comparison to untreated controls) it was 20%. The “Post-emergence action against TRZAS in %” value in [19] (80 g/ha) is given as 0%. Further, in data set [20], the “Post-emergence action against ZEAMX in %” value is on record as 0%.
For `O=C(O)COc1nn(-c2ccccn2)c(-c2cncc(F)c2)c1C1CC1` [Example I-72], the “Pre-emergence action against ALOMY” value in [1] is recorded as 100%. Besides, in data set [2], the “Pre-emergence action against AMARE in %” value amounted to 90%. Besides, the “Pre-emergence action against LOLRI in %” value in data set [3] is 100%. For the same compound, in data set [4], the “Pre-emergence action against SETVI in %” value is listed as 90%. The “Pre-emergence action against VIOTR in %” value in data set [21] is 90%. Besides, the “Pre-emergence action against BRSNW in %” value in [5] (80 g/ha) amounted to 10%. The “Pre-emergence action against GLXMA in %” value in data set [6] is 0%. Besides, the figures for the “Pre-emergence action against ORYSA in %” value in data set [7] (80 g/ha) and in data set [7] (320 g/ha) were 0% and 20%, respectively. The “Pre-emergence action against TRZAS in %” value in [8] is on record as 10%. In addition, the “Pre-emergence action against ZEAMX in %” value in [9] (80 g/ha) and in data set [9] (320 g/ha) was 0% throughout. Further, in [11] (80 g/ha), the “Post-emergence action against ALOMY in %” value turned out to be 90%. In addition, in data set [12] (setting [22]), the “Post-emergence action against AMARE in %” value is 80%. For the same compound, the “Post-emergence action against ORYSA in %” value in data set [18] (setting [24]) was determined as 10%; in data set [18] (setting [23]) it was 20%. The “Post-emergence action against TRZAS in %” value in data set [19] (20 g/ha) was 10%.
For the compound `COC(=O)CCOC(=O)COc1nn(-c2ccccn2)c(-c2cncc(F)c2)c1C1CC1` [Example I-71], the “Pre-emergence action against ALOMY” value in data set [1] came to 90%. Moreover, the “Pre-emergence action against LOLRI in %” value in data set [3] came to 90%. Besides, in [4], the “Pre-emergence action against SETVI in %” value is recorded as 100%. Moreover, the “Pre-emergence action against BRSNW in %” value in data set [5] (80 g/ha) was found to be 0%. The “Pre-emergence action against GLXMA in %” value in [6] was 20%. Also, in [7] (80 g/ha), the “Pre-emergence action against ORYSA in %” value amounted to 10%. Also, the “Pre-emergence action against TRZAS in %” value in data set [8] came to 10%. In [9] (80 g/ha), the “Pre-emergence action against ZEAMX in %” value is recorded as 10%. Besides, the “Post-emergence action against ALOMY in %” value in [11] (80 g/ha) came out at 90%. In addition, in data set [12] (setting [22]), the “Post-emergence action against AMARE in %” value is on record as 90%. In addition, the “Post-emergence action against ORYSA in %” value in data set [18] (setting [24]) turned out to be 10%; in data set [18] (setting [23]) it was 20%. Further, the “Post-emergence action against TRZAS in %” value in data set [19] (20 g/ha) was 10%. Also, the “Post-emergence action against ZEAMX in % (crop plant compatibility)” value in data set [20] (20 g/ha, ZEAMX, effect in comparison to untreated controls) is recorded as 0%. For the same compound, in data set [20], the “Post-emergence action against ZEAMX in %” value came out at 10%.
